According to patent US12194080B2, “Methods for identification, assessment, prevention, and treatment of metabolic disorders using PM20D1 and N-lipidated amino acids” (Dana-Farber Cancer Institute, Inc., priority 2015, dated 2025):

How the values were obtained:
[1] = Blood levels after a single i.p. dose; assay type: in vivo; conditions: C57BL/6, mouse, ip, single 30 mg/kg i.p. dose, mean±SEM, n=3
Description: Animal experiments were performed according to procedures approved by the Beth Israel Deaconess Medical Center IACUC. Mice were maintained in 12 h light-dark cycles at 22° C. and fed a standard irradiated rodent chow diet. All experiments on wild-type mice were performed with male C57BL/6 mice purchased from Jackson Laboratories, except for the AAV experiments, which were performed with male C57BL/6 mice from Charles River. UCP1-KO (stock #017476) and 16-20 week DIO mice (stock #380050) were obtained from Jackson Laboratories. For AAV injection experiments, mice were gently warmed using a 250 W clear infrared heat lamp, immobilized, and injected via tail vein with 10^10 virus/mouse (diluted in saline) in a total volume of 100 μl/mouse. Where indicated, mice were placed on high-fat diet (60% fat, Research Diets). For cold exposure experiments, mice were group housed and placed at 4° C. for the indicated times. For the preparation of C18:1-Phe for in vivo injections, compounds were dissolved in 18:1:1 v/v/v saline:Kolliphor® EL (Sigma Aldrich):DMSO and sonicated until homogeneous. Mice were administered compounds at 5 μl/g body weight at the indicated doses. For all injection experiments, mice were mock injected with saline daily for 3 days prior to the start of the experiments. […]

[2] = system: differentiated primary BAT cells; assay: Cellular oxygen consumption rate (Seahorse XF24), differentiated primary BAT adipocytes; assay type: cell-based, mouse; conditions: 50 μM, in presence of oligomycin (1 μM)
Description: C2C12, U2O5, and 293A cells were cultured in DMEM with 10% FBS and pen/strep. Primary inguinal (iWAT) and brown (BAT) adipocytes were obtained as follows. The stromal-vascular fraction of inguinal (iWAT) pad from 4-12 week old male mice was dissected, minced, and digested for 45 min. at 37° C. in PBS containing 10 mM CaCl2, 2.4 U/ml dispase II (Roche), and 1.5 U/ml collagenase D (Roche). The stromal-vascular fraction of brown fat (BAT) pads from newborn (P1-P14) pups was dissected, minced, and digested for 45 min at 37° C. in PBS containing 1.3 mM CaCl2, 120 mM NaCl, 5 mM KCl, 5 mM glucose, 100 mM HEPES, 4% BSA, and 1.5 mg/ml collagenase B (Roche). […]
Cellular oxygen consumption rates were determined using an XF24 Extracellular Flux Analyzer (Seahorse Biosciences). […] C2C12 or U2OS cells were seeded at 30,000 or 50,000 cells/well, respectively in an XF24 cell culture microplate (V7-PS, Seahorse Bioscience) and analyzed the following day. Primary iWAT or BAT adipocytes were seeded at 15,000 cells/well, differentiation was induced the following day as described, and the cells were analyzed on day 5. […] For data expressed as a percentage of oligomycin-treated basal, the respiration at cycle 6 was normalized to 100%, and the maximum respiration at any time point between cycles 7 and 15 inclusive was used.

With CCCCCCCC/C=C\CCCCCCCC(=O)N[C@@H](Cc1ccccc1)C(=O)O [C18:1-Phe, Oleoyl-L-phenylalanine] as the compound, how does the concentration at 2 h ([1]; 2 h post-injection) read?
Its concentration at 2 h is 3000 ± 300 nM.

And the concentration at 6 h ([1]; 6 h post-injection)?
The concentration at 6 h was 400 ± 100 nM.

What about the “maximal OCR versus DMSO at the same time point” value [2] of the same compound?
The value was 156%.

What about the “maximal OCR versus oligomycin-treated basal respiration” value [2] of the same compound?
Its value is 198%.
